Data from ChEMBL document CHEMBL1152320, “Diterpene formamides from the tropical marine sponge Cymbastela hooperi and their antimalarial activity in vitro” (J Nat Prod, 2009).
In brackets after ≈: the same amount, converted by molar mass.

The molecules below were run on Plasmodium falciparum (assay: Antiplasmodial activity after 48 hrs against Plasmodium falciparum FCR3F86 by [3H]hypoxanthine uptake).
Format: functional, organism-based

Going from `C[C@@H]1C[C@@H]2C[C@H](C)[C@H]3CC[C@](C)(NC=O)[C@H]4CC[C@@H]([C@@H]2[C@H]34)[C@]1(C)NC=O` to `[C-]#[N+][C@]1(C)[C@H](C)C[C@@H]2C[C@H](C)[C@H]3CC[C@](C)(NC=O)[C@H]4CC[C@H]1[C@@H]2[C@H]34`, the IC50 falls from 14.8 µg/mL (≈ 41 µM) to 0.2 µg/mL (≈ 0.584 µM) (74-fold).

First: C=C1CC[C@H]2[C@H]3[C@H](CC[C@]2(C)NC=O)[C@@H](C)C[C@H](C=C(C)C)[C@H]13 (relative stereo)
Second: C=C(C)C[C@@H]1C[C@H](C)[C@H]2CC[C@](C)(NC=O)[C@H]3CCC(=C)[C@@H]1[C@H]23 (relative stereo)
The IC50 of the first is lower: 63 µg/mL (≈ 200 µM) for the first, greater than 90 µg/mL for the second.

Going from `O=C1C(O)=C([C@H]2CC[C@H](c3ccc(Cl)cc3)CC2)C(=O)c2ccccc21` [ATOVAQUONE] to `C[C@H]1C[C@H]2CC(C)(C)C=C3CC[C@H]4[C@@H]([C@@H]1CC[C@]4(C)NC=O)[C@@H]32` (relative stereo), the IC50 rises from 0.0004 µg/mL (≈ 0.00109 µM) to greater than 100 µg/mL.

These molecules were tested on Plasmodium falciparum (assay: Antiplasmodial activity after 48 hrs against Plasmodium falciparum W2 by [3H]hypoxanthine uptake).
Format: functional, organism-based

In order of rising IC50:
1. O=C1C(O)=C([C@H]2CC[C@H](c3ccc(Cl)cc3)CC2)C(=O)c2ccccc21 [ATOVAQUONE]  0.0008 µg/mL (≈ 0.00218 µM)
2. [C-]#[N+][C@]1(C)[C@H](C)C[C@@H]2C[C@H](C)[C@H]3CC[C@](C)(NC=O)[C@H]4CC[C@H]1[C@@H]2[C@H]34  0.6 µg/mL (≈ 1.75 µM)

Each molecule was assayed on Plasmodium falciparum (assay: Antiplasmodial activity after 48 hrs against Plasmodium falciparum D6 by [3H]hypoxanthine uptake).
Format: functional, organism-based

In order of falling IC50:
1. [C-]#[N+][C@]1(C)[C@H](C)C[C@@H]2C[C@H](C)[C@H]3CC[C@](C)(NC=O)[C@H]4CC[C@H]1[C@@H]2[C@H]34  0.8 µg/mL (≈ 2.34 µM)
2. O=C1C(O)=C([C@H]2CC[C@H](c3ccc(Cl)cc3)CC2)C(=O)c2ccccc21 [ATOVAQUONE]  0.0002 µg/mL (≈ 0.000545 µM)

These molecules were tested on KB (assay: Cytotoxicity against human KB cells assessed as [3H]hypoxanthine incorporation after 48 hrs).
Format: functional, cell-based

`O=C1C(O)=C([C@H]2CC[C@H](c3ccc(Cl)cc3)CC2)C(=O)c2ccccc21` [ATOVAQUONE] and `[C-]#[N+][C@]1(C)[C@H](C)C[C@@H]2C[C@H](C)[C@H]3CC[C@](C)(NC=O)[C@H]4CC[C@H]1[C@@H]2[C@H]34` cannot be ordered by IC50: greater than 5 µg/mL for the first, greater than 5 µg/mL for the second.
